Data: patent publication US20230082430A1 (C4 Therapeutics, Inc., priority 2019, published 2023)
Where a name gives a salt, the structure may show the parent alone.

What follows are molecules tested on NCIH929.1 cells (assay: Cell viability assay for Table 2 (CellTiter-Glo 2.0, ATP quantification, 96 hr)). Conditions: 96 h, NCIH929.1 cell viability, 96 hr, top concentration 1 μM, 14 points half log titration; read-out: IC50.
Format: cell-based
Excerpt: Cell Viability Assay for Table 2
CellTiter-Glo® 2.0 Assay was purchased from Promega (Madison, Wis., USA). NCIH929.1 cell line was purchased from ATCC (Manassas, Va., USA). Cell culture flasks and 384-well microplates were acquired from VWR (Radnor, Pa., USA).
`COCC(C)(C)C(=O)N1CCC(C)(n2cc(Cc3ccc4c5c(cccc35)C(=O)N4C3CCC(=O)NC3=O)cn2)CC1` (stereo not drawn) [Compound 85, 3-(6-((1-(1-(3-methoxy-2,2-dimethylpropanoyl)-4-methylpiperidin-4-yl)-1H-pyrazol-4-yl)methyl)-2-oxobenzo[cd]indol-1(2H)-yl)piperidine-2,6-dione] was tested, and the IC50 was < 1 nM.
For `CC1(CN2CCC(n3cc(Cc4ccc5c6c(cccc46)C(=O)N5C4CCC(=O)NC4=O)cn3)CC2)CC1` (stereo not drawn) [Compound 64, 3-[6-[[1-[1-[(1-methylcyclopropyl)methyl]-4-piperidyl]pyrazol-4-yl]methyl]-2-oxo-benzo[cd]indol-1-yl]piperidine-2,6-dione], the IC50 was < 1 nM.
In the case of `CC1(C)C(N2CCC(n3cc(Cc4ccc5c6c(cccc46)C(=O)N5C4CCC(=O)NC4=O)cn3)CC2)C1(C)C` (stereo not drawn) [Compound 240, 3-(2-oxo-6-((1-(1-(2,2,3,3-tetramethylcyclopropyl)piperidin-4-yl)-1H-pyrazol-4-yl)methyl)benzo[cd]indol-1(2H)-yl)piperidine-2,6-dione], the IC50 is reported as < 1 nM.
With `CC1(C(=O)N2CCC(n3cc(Cc4cnc5c6c(cccc46)C(=O)N5C4CCC(=O)NC4=O)cn3)CC2)CCC1` (stereo not drawn) [Compound 289, 3-[20-[[1-[1-(1-methylcyclobutanecarbonyl)-4-piperidyl]pyrazol-4-yl]methyl]-26-oxo-30,35-diazatricyclododeca-1,3(18),5(20),17(21),22(30)-pentaen-35-yl]piperidine-2,6-dione] the IC50 was < 100 nM.
For `CC1(n2cc(Cc3ccc4c5c(cccc35)C(=O)N4C3CCC(=O)NC3=O)cn2)CCNCC1` (stereo not drawn) [Compound 69, 3-(6-((1-(4-methylpiperidin-4-yl)-1H-pyrazol-4-yl)methyl)-2-oxobenzo[cd]indol-1(2H)-yl)piperidine-2,6-dione hydrochloride], the IC50 was < 100 nM.
`CC(C)(C#N)C(=O)N1CCC(n2cc(Cc3ccc4c5c(cccc35)C(=O)N4C3CCC(=O)NC3=O)cn2)CC1` (stereo not drawn) [Compound 40, 3-(4-(4-((1-(2,6-dioxopiperidin-3-yl)-2-oxo-1,2-dihydrobenzo[cd]indol-6-yl)methyl)-1H-pyrazol-1-yl)piperidin-1-yl)-2,2-dimethyl-3-oxopropanenitrile] was tested, and the IC50 was < 1 nM.
In the case of `O=C1CCC(N2C(=O)c3cccc4c(Cc5ccc(CN6CCOCC6)c(F)c5)ccc2c34)C(=O)N1` (stereo not drawn) [Compound 278, 3-[6-{[3-fluoro-4-(morpholinomethyl)phenyl]methyl}-2-oxo-benzo[cd]indol-1-yl]piperidine-2,6-dione], the IC50 is reported as < 1 nM.
With `CC(C)(C)CN1CCC(n2cc(Cc3ccc4c5c(cccc35)C(=O)N4C3CCC(=O)NC3=O)cn2)CC1` (stereo not drawn) [Compound 63, 3-(6-((1-(1-neopentylpiperidin-4-yl)-1H-pyrazol-4-yl)methyl)-2-oxobenzo[cd]indol-1(2H)-yl)piperidine-2,6-dione] the IC50 was < 1 nM.
For `CC1(CN2CCC(n3cc(Cc4ccc5c6c(cccc46)C(=O)N5C4CCC(=O)NC4=O)cn3)CC23CC3)CCC1` (single isomer, unassigned) [Compound 274, 3-[6-[[1-[4-[(1-methylcyclobutyl)methyl]-4-azaspiro[2.5]octan-7-yl]pyrazol-4-yl]methyl]-2-oxo-benzo[cd]indol-1-yl]piperidine-2,6-dione], the IC50 was < 1 nM.
`CC1(C(=O)N2CCC(N3CCN(Cc4ccc5c6c(cccc46)C(=O)N5C4CCC(=O)NC4=O)C3=O)CC2)CCC1` (stereo not drawn) [Compound 181, 3-[6-[[3-[1-(1-methylcyclobutanecarbonyl)-4-piperidyl]-2-oxo-imidazolidin-1-yl]methyl]-2-oxo-benzo[cd]indol-1-yl]piperidine-2,6-dione] was tested, and the IC50 was < 1 nM.
With `CC1(C(=O)N2CCC(C)(n3cc(Cc4ccc5c6c(cccc46)C(=O)N5C4CCC(=O)NC4=O)cn3)CC2)CC1` (stereo not drawn) [Compound 83, 3-(6-((1-(4-methyl-1-(1-methylcyclopropane-1-carbonyl)piperidin-4-yl)-1H-pyrazol-4-yl)methyl)-2-oxobenzo[cd]indol-1(2H)-yl)piperidine-2,6-dione] the IC50 was < 1 nM.
In the case of `O=C1CCC(N2C(=O)c3cccc4c(Cc5cnn(C6CCN(C(=O)C7(C(F)(F)F)CC7)CC6)c5)ccc2c34)C(=O)N1` (stereo not drawn) [Compound 52, 3-(2-oxo-6-((1-(1-(1-(trifluoromethyl)cyclopropane-1-carbonyl)piperidin-4-yl)-1H-pyrazol-4-yl)methyl)benzo[cd]indol-1(2H)-yl)piperidine-2,6-dione], the IC50 is reported as < 1 nM.
In the case of `CC1(CN2CCC(n3cc(Cc4ccc5c6c(cccc46)C(=O)N5C4CCC(=O)NC4=O)cn3)(C(F)(F)F)CC2)CCC1` (stereo not drawn) [Compound 191, 3-[6-[[1-[1-[(1-methylcyclobutyl)methyl]-4-(trifluoromethyl)-4-piperidyl]pyrazol-4-yl]methyl]-2-oxo-benzo[cd]indol-1-yl]piperidine-2,6-dione], the IC50 is reported as < 1 nM.
In the case of `O=C1CCC(N2C(=O)c3cccc4c(Cc5cnn(C6CCN(C7CCC78CCC8)CC6)c5)ccc2c34)C(=O)N1` (single isomer, unassigned) [Compound 244, 3-{2-Oxo-6-[1-(1-spiro[3.3]hept-1-yl-piperidin-4-yl)-1H-pyrazol-4-ylmethyl]-2H-benzo[cd]indol-1-yl}-piperidine-2,6-dione], the IC50 is reported as < 1 nM.
In the case of `CC(C1CCC1)N1CCC(n2cc(Cc3ccc4c5c(cccc35)C(=O)N4C3CCC(=O)NC3=O)cn2)CC1` (single isomer, unassigned) [Compound 280, 3-[6-[[1-[1-[1-cyclobutylethyl]-4-piperidyl]pyrazol-4-yl]methyl]-2-oxo-benzo[cd]indol-1-yl]piperidine-2,6-dione], the IC50 is reported as < 1 nM.
`O=C1CCC(N2C(=O)c3cccc4c(Cc5ccc(CN6CCN(S(=O)(=O)c7ccc(F)cc7)CC6)cc5)ccc2c34)C(=O)N1` (stereo not drawn) [Compound 202, 3-[6-[[4-[[4-(4-fluorophenyl)sulfonylpiperazin-1-yl]methyl]phenyl]methyl]-2-oxo-benzoindol-1-yl]piperidine-2,6-dione] was tested, and the IC50 was < 1 nM.
For `CC12CC(C(=O)N3CCC(C)(n4cc(Cc5ccc6c7c(cccc57)C(=O)N6C5CCC(=O)NC5=O)cn4)CC3)(CCO1)C2` (stereo not drawn) [Compound 88, 3-(6-((1-(4-methyl-1-(1-methyl-2-oxabicyclo[3.1.1]heptane-5-carbonyl)piperidin-4-yl)-1H-pyrazol-4-yl)methyl)-2-oxobenzo[cd]indol-1(2H)-yl)piperidine-2,6-dione], the IC50 was < 1 nM.
For `O=C1CCC(N2C(=O)c3cccc4c(Cc5cnn(C6CCN([C@H]7CCC8(CCC8)C7)CC6)c5)ccc2c34)C(=O)N1` (stereo partly drawn) [Compound 242], the IC50 was < 1 nM.
With `CC1(n2cc(Cc3ccc4c5c(cccc35)C(=O)N4C3CCC(=O)NC3=O)cn2)CCN(C(=O)C23CC(CO2)C3)CC1` (stereo not drawn) [Compound 90, 3-(6-((1-(1-(2-oxabicyclo[2.1.1]hexane-1-carbonyl)-4-methylpiperidin-4-yl)-1H-pyrazol-4-yl)methyl)-2-oxobenzo[cd]indol-1(2H)-yl)piperidine-2,6-dione] the IC50 was < 1 nM.
For `CC1(C(=O)N2CCC(c3ccn(Cc4ccc5c6c(cccc46)C(=O)N5C4CCC(=O)NC4=O)n3)CC2)CCC1` (stereo not drawn) [Compound 180, 3-[6-[[3-[1-(1-methylcyclobutanecarbonyl)-4-piperidyl]pyrazol-1-yl]methyl]-2-oxo-benzo[cd]indol-1-yl]piperidine-2,6-dione], the IC50 was < 1 nM.
With `O=C1CCC(N2C(=O)c3cccc4c(Cc5cnn(C6CCN(C7CC8(CCC8)C7)CC6)c5)ccc2c34)C(=O)N1` (stereo not drawn) [Compound 288, 3-[2-oxo-6-[[1-(1-spiro[3.3]heptan-2-yl-4-piperidyl)pyrazol-4-yl]methyl]benzo[cd]indol-1-yl]piperidine-2,6-dione] the IC50 was < 1 nM.
`CC1(CN2CCC(n3cc(Cc4ccc5c6c(cccc46)C(=O)N5C4CCC(=O)NC4=O)c(Cl)n3)CC2)CCC1` (stereo not drawn) [Compound 200, 3-[6-[[3-chloro-1-[1-[(1-methylcyclobutyl)methyl]-4-piperidyl]pyrazol-4-yl]methyl]-2-oxo-benzo[cd]indol-1-yl]piperidine-2,6-dione] was tested, and the IC50 was < 1 nM.

Same assay, conditions: NCIH929.1 cell viability, 96 hr, top concentration 1 μM, 14 points half log titration; read-out: IC50
In the case of `CC1(CN2CCC(n3cc(Cc4ccc5c6c(cccc46)C(=O)N5C4CCC(=O)NC4=O)cn3)CC2)CCC1` (single isomer, unassigned) [Compound 237, 3-[6-[[1-[1-[(1-methylcyclobutyl)methyl]-4-piperidyl]pyrazol-4-yl]methyl]-2-oxo-benzo[cd]indol-1-yl]piperidine-2,6-dione], the IC50 is reported as < 1 nM.
With `CC1(n2cc(Cc3ccc4c5c(cccc35)C(=O)N4C3CCC(=O)NC3=O)cn2)CCN(C(=O)C23COC(C2)C3)CC1` (single isomer, unassigned) [Compound 239, 3-[6-[[1-[4-methyl-1-(2-oxabicyclo[2.1.1]hexane-4-carbonyl)-4-piperidyl]pyrazol-4-yl]methyl]-2-oxo-benzo[cd]indol-1-yl]piperidine-2,6-dione] the IC50 was < 1 nM.
In the case of `CC(c1cnn(C2CCN(C(=O)C3(C)CCC3)CC2)c1)c1ccc2c3c(cccc13)C(=O)N2C1CCC(=O)NC1=O` (single isomer, unassigned) [Compound 149, 3-(6-(1-(1-(1-(1-methylcyclobutane-1-carbonyl)piperidin-4-yl)-1H-pyrazol-4-yl)ethyl)-2-oxobenzo[cd]indol-1(2H)-yl)piperidine-2,6-dione], the IC50 is reported as < 1 nM.
`CC(c1ccc(Cc2ccc3c4c(cccc24)C(=O)N3C2CCC(=O)NC2=O)cc1)N1CCN(c2ccccc2F)CC1` (single isomer, unassigned) [Compound 285, 3-[6-[[4-[1-[4-(2-fluorophenyl)piperazin-1-yl]ethyl]phenyl]methyl]-2-oxo-benzo[cd]indol-1-yl]piperidine-2,6-dione] was tested, and the IC50 was < 1 nM.
With `CC(C1CC1)N1CCC(n2cc(Cc3ccc4c5c(cccc35)C(=O)N4C3CCC(=O)NC3=O)cn2)CC1` (single isomer, unassigned) [Compound 283, 3-(6-((1-(1-(1-cyclopropylethyl)piperidin-4-yl)-1H-pyrazol-4-yl)methyl)-2-oxobenzo[cd]indol-1(2H)-yl)piperidine-2,6-dione] the IC50 was < 1 nM.
